System: 186277-243-T-J2-PDC spheroids with HUVEC/MSC, viability
Assay: Anticancer human tumor 186277-243-T-J2-PDC patient-derived colon adenocarcinoma cell line growth inhibition [CLK]
Conditions: for viability, T/C: stronger effect = lower value; active = viability on the fitted dose curve at most 10% of control; inactive = the rest
Text: A high-throughput screen of multi-cell type tumor spheroids was designed to identify active combinations of […] and targeted small molecules. Complex spheroids include a stromal component modeled by human endothelial cells (HUVEC) and fibroblasts modeled by human mesenchymal stem cells (MSCs). The concentration ranges selected for each drug and investigational agent were based upon clinically achievable concentrations if the clinical Cmax of the agent was known.
Compounds. The drugs and investigational agents: cirtuvivint (SM08502; NSC835563), CC-671 (NSC850746), vemurafenib (NSC761431), tapotoclax (NSC804041), sotorasib (NSC818433), adagrasib (NSC831453), MRTX-1133 (NSC836407), BAY2416964 (NSC825713), copanlisib (NSC816437), inavolisib (NSC800729), abemaciclib (NSC768073), osimertinib (NSC779217), entinostat (NSC756642), eltanexor (KPT-8602, NSC794443), venetoclax (NSC766270), ceralasertib (NSC777638), bortezomib (NSC756655), olaparib (NSC753686), talazoparib (NSC767125), alisertib (NSC759677), peposertib (NSC802822), gemcitabine (NSC613327), 5-fluorouracil (NSC19893), SN-38 (NSC673596), oxaliplatin (NSC266046), paclitaxel (NSC125973), and doxorubicin (NSC123127), were obtained from the National Cancer Institute (NCI) Developmental Therapeutics Program Chemical Repository. The FDA-approved anticancer drug set is available from the Developmental Therapeutics Program at https://dtp.cancer.gov/organization/dscb/obtaining/available plates.htm. […] The stock solutions were prepared in dimethyl sulfoxide (DMSO, Sigma-Aldrich, St. Louis, MO, cat. D2650), except for the platinum complexes which were prepared in saline (Quality Biological, Gaithersburg, MD, cat. 114-055-101), at 800-fold the tested concentration and stored at -70 degrees C prior to their use. All drugs and investigational agents were tested over a range starting from a high concentration at or near the clinical Cmax and decreasing in half-log increments. If the clinical Cmax for an agent had not been determined, the highest concentration tested was 10 microM.
Cell Culture. All cells were maintained in an incubator at 37 degrees C and 5% CO2 with 95% humidity. The PDC lines were cultured according to standard operating procedures established by the NCI PDMR. Briefly, all PDCs were thawed and cultured in Matrigel-coated flasks prepared with a working solution of 1X Ham's F-12 nutrient mix, without supplementation (Invitrogen, Waltham, MA, cat. 11765054), 100 U/mL penicillin-streptomycin (Invitrogen, cat. 15140122), and 2.5% Matrigel (Corning Inc., Corning, NY, cat. 354248) for the first three passages. The 947758-054-R-J2-PDC line was cultured in 6B/Colon 1A media, which includes advanced DMEM/F-12 (Thermo Fisher Scientific, cat. 12634028), 10 mM HEPES (Thermo Fisher Scientific, cat. 15630080), 1X GlutaMAX supplement (Thermo Fisher Scientific, cat. 35050061), 0.1 mg/mL primocin (InvivoGen, cat. ant-pm-2), 10% defined fetal bovine serum, heat inactivated (HyClone Laboratories Inc., cat. SH30070.03HI), 1.25 mM N-Acetyl-L-cysteine (Sigma-Aldrich, cat. A9165), 10 mM nicotinamide (Sigma-Aldrich, cat. N0636), 1X B-27 supplement (Thermo Fisher Scientific, cat. 17504044), 1X N-2 supplement (Thermo Fisher Scientific, cat. 17502048), and 10 microM Y-27632 dihydrochloride (Tocris Bioscience, cat. 1254). The 876862-298-R-J1-PDC was cultured in 6E media, which includes all 6B/Colon 1A media components plus 50% L-WRN conditioned media (ATCC, cat. CRL-3276), 50 ng/mL recombinant human EGF recombinant protein (hEGF; Thermo Fisher Scientific, cat. PHG0311), 10 ng/mL recombinant human fibroblast growth factor 10 (hGFG-10; PeproTech, cat. 100-26), 1 ng/mL recombinant human fibroblast growth factor 2 (hFGF-2; PeproTech, cat. 100-18B), and 1 µM prostaglandin E2 (PGE2; Tocris, cat. 2296). The 227483-062-R1-J1-PDC line was cultured in Panc media, containing all 6E components except hFGF-2, with the addition of 500 nM SB-431542 (Selleckchem, cat. S1067) and 10 nM gastrin (Tocris, cat. 3006). […]
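Note: compound exposure lasted seven days before readout.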
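Throughout, for viability, T/C: 100% = DMSO vehicle control wells.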

CN1CCN(c2cc(C(=O)Nc3cc4cc(-c5cnn(C)c5)ccc4cn3)ccn2)CC1
active: viability, T/C (compound 1 µM) 0.99% [middle of 10 runs] | viability, T/C (compound 3.16 µM) 1.22% [middle of 11 runs] | viability, T/C (compound 10 µM) 1.7% [middle of 11 runs]
192 nM [middle of 11 runs]: IC50 (compound alone, run of 08/14/2023)
inactive: viability, T/C (compound 0.316 µM) 23.7% [middle of 11 runs]

CNC(=O)c1ccc(Nc2nc(OC3CCCC3)c3c(-c4ccc5nc(C)oc5c4)c[nH]c3n2)c(OC)c1
241 nM [middle of 12 runs]: IC50 (compound alone, run of 08/15/2023)
inactive: viability, T/C (compound 0.1 µM) 67.9% [middle of 12 runs] | viability, T/C (compound 0.316 µM) 46.2% [middle of 12 runs] | viability, T/C (compound 1 µM) 33% [middle of 12 runs] | viability, T/C (compound 3.16 µM) 32.1% [middle of 12 runs] | viability, T/C (compound 10 µM) 33.9% [middle of 11 runs]

COc1ccc([C@@H](O)c2cc(-c3ncnc4cc(N5CCOCC5)ccc34)c(F)cc2Cl)nn1
9.91 µM: IC50 (curve of compound)
inactive: viability, T/C (compound 0.0316 µM) 95.1% | viability, T/C (compound 0.1 µM) 96.1% | viability, T/C (compound 0.316 µM) 117% | viability, T/C (compound 1 µM) 85.1% | viability, T/C (compound 3.16 µM) 87.2% | viability, T/C (compound 10 µM) 49.2%

C=CC(=O)N1CCN(c2nc(=O)n(-c3c(C)ccnc3C(C)C)c3nc(-c4c(O)cccc4F)c(F)cc23)C(C)C1 (stereo not given) + CN1CCN(c2cc(C(=O)Nc3cc4cc(-c5cnn(C)c5)ccc4cn3)ccn2)CC1
inactive: viability, T/C (second compound 0.0316 µM, first compound 0.0316 µM) 97.2% | viability, T/C (second compound 0.0316 µM, first compound 0.1 µM) 108% | viability, T/C (second compound 0.0316 µM, first compound 0.316 µM) 102% | viability, T/C (second compound 0.0316 µM, first compound 1 µM) 98.8% | viability, T/C (second compound 0.0316 µM, first compound 3.16 µM) 102% | viability, T/C (second compound 0.0316 µM, first compound 10 µM) 86.6% | viability, T/C (second compound 0.1 µM, first compound 0.0316 µM) 102% | viability, T/C (second compound 0.1 µM, first compound 0.1 µM) 81% | viability, T/C (second compound 0.1 µM, first compound 0.316 µM) 90.5% | viability, T/C (second compound 0.1 µM, first compound 1 µM) 84.1% | viability, T/C (second compound 0.1 µM, first compound 3.16 µM) 86.2% | viability, T/C (second compound 0.1 µM, first compound 10 µM) 72.4% | viability, T/C (second compound 0.316 µM, first compound 0.0316 µM) 29.7% | viability, T/C (second compound 0.316 µM, first compound 0.1 µM) 28.8% | viability, T/C (second compound 0.316 µM, first compound 0.316 µM) 29.5% | viability, T/C (second compound 0.316 µM, first compound 1 µM) 24.8% | viability, T/C (second compound 0.316 µM, first compound 3.16 µM) 30.8% | viability, T/C (second compound 0.316 µM, first compound 10 µM) 11%
active: viability, T/C (second compound 1 µM, first compound 0.0316 µM) 0.72% | viability, T/C (second compound 1 µM, first compound 0.1 µM) 1.4% | viability, T/C (second compound 1 µM, first compound 0.316 µM) 0.59% | viability, T/C (second compound 1 µM, first compound 1 µM) 1.74% | viability, T/C (second compound 1 µM, first compound 3.16 µM) 1.4% | viability, T/C (second compound 1 µM, first compound 10 µM) 1.65% | viability, T/C (second compound 3.16 µM, first compound 0.0316 µM) 0.98% | viability, T/C (second compound 3.16 µM, first compound 0.1 µM) 1.19% | viability, T/C (second compound 3.16 µM, first compound 0.316 µM) 1.22% | viability, T/C (second compound 3.16 µM, first compound 1 µM) 2.38% | viability, T/C (second compound 3.16 µM, first compound 3.16 µM) 2.84% | viability, T/C (second compound 3.16 µM, first compound 10 µM) 1.94% | viability, T/C (second compound 10 µM, first compound 0.0316 µM) 0.63% | viability, T/C (second compound 10 µM, first compound 0.1 µM) 0.71% | viability, T/C (second compound 10 µM, first compound 0.316 µM) 1.36% | viability, T/C (second compound 10 µM, first compound 1 µM) 1.03% | viability, T/C (second compound 10 µM, first compound 3.16 µM) 2.23% | viability, T/C (second compound 10 µM, first compound 10 µM) 1.12%
> 10 µM: IC50 (curve of first compound, second compound 0.0316 µM) | IC50 (curve of first compound, second compound 0.1 µM)
< 0.0316 µM: IC50 (curve of first compound, second compound 0.316 µM) | IC50 (curve of first compound, second compound 1 µM) | IC50 (curve of first compound, second compound 3.16 µM) | IC50 (curve of first compound, second compound 10 µM)
